Where two headings read alike, the source gives them in different places.
Experiments:
[1] = tested on: Molt-4 human acute lymphoblastic leukemia cells; assay: Molt-4 cell viability assay (CellTiter-Glo, 48 hours, 10% HS); assay type: cell-based; settings: Homo sapiens, MOLT-4, 48 h, non-permeabilized cells
Protocol: The ability of Bcl-xL inhibitors that are able to traverse cell membranes to inhibit Bcl-xL can be determined in cell-based killing assays using a variety of cell lines and mouse tumor models. For example, their activity on cell viability can be assessed on a panel of cultured tumorigenic and non-tumorigenic cell lines, as well as primary mouse or human cell populations.
In one exemplary set of conditions, Molt-4 (ATCC, Manassas, VA) human acute lymphoblastic leukemia cells were plated 12,500 cells per well in 384-well tissue culture plates (Corning, Corning, NY) in a total volume of 25 μL tissue culture medium supplemented with 10% human serum (Sigma-Aldrich, St. Louis, MO) and treated with a 3-fold serial dilution of the compounds of interest from 10 μM to 0.0005 μM. Each concentration was tested in duplicate at least 3 separate times. The number of viable cells following 48 hours of compound treatment was determined using the CellTiter-Glo®, Luminescent Cell Viability Assay according to the manufacturer's recommendations (Promega Corp., Madison, WI). Compounds were tested in the presence of 10% HS.

Bcl-xL = Bcl-xL (Homo sapiens, UniProt Q07817); assay: Time Resolved-Fluorescence Resonance Energy Transfer (TR-FRET) binding assay, competition with probe F-Bak
Sequence of Bcl-xL (Q07817 whole entry): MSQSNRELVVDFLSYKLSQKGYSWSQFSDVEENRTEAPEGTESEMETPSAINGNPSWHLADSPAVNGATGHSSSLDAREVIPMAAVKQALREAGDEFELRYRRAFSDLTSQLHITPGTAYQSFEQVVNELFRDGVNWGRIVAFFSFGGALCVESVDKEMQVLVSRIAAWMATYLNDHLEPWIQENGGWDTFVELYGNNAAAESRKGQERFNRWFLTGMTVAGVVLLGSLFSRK
Protocol: Tb-anti-GST antibody was purchased from Invitrogen (Catalog No. PV4216).
For the assay, test compounds were serially diluted in DMSO starting at 50 μM (2× starting concentration; 10% DMSO) and 10 μL transferred into a 384-well plate. 10 μL of a protein/probe/antibody mix was then added to each well at final concentrations listed below:
The samples were then mixed on a shaker for 1 minute and incubated for an additional 2 hours at room temperature. For each assay plate, a probe/antibody and protein/antibody/probe mixture were included as a negative and a positive control, respectively. Fluorescence was measured on the Envision (Perkin Elmer) using a 340/35 nm excitation filter and 520/525 (F-Bak) and 495/510 nm (Tb-labeled anti-his antibody) emission filters. Dissociation constants (Ki) were determined using Wang's equation (Wang, 1995, FEBS Lett. 360:111-114). The TR-FRET assay can be performed in the presence of varying concentrations of human serum (HS) or fetal bovine serum (FBS). Compounds were tested both without HS and in the presence of 1% HS.

[2] = in the presence of 1% HS, read-out: Bcl-xL Binding Ki (nM, 1% HS)
[3] = without HS, read-out: Bcl-xL Binding Ki

EC50 [1]	Ki (Bcl-xL; [2])	Ki (Bcl-xL; [3])	SMILES
405 nM	0.0635 nM	< 0.001 nM	Cc1c(-c2ccc(N3CCc4cccc(C(=O)Nc5nc6ccccc6s5)c4C3)nc2C(=O)O)cnn1CC12CC3(C)CC(C)(C1)CC(OCCN(CCC(=O)O)C1CCNCC1)(C3)C2 [Example 1.36, 6-[8-(1,3-benzothiazol-2-ylcarbamoyl)-3,4-dihydroisoquinolin-2 (1H)-yl]-3-{1-[(3-{2-[(2-carboxyethyl)(piperidin-4-yl)amino]ethoxy}-5,7-dimethyltricyclo[3.3.1.1^3,7]dec-1-yl)methyl]-5-methyl-1H-pyrazol-4-yl}pyridine-2-carboxylic acid]
805 nM	0.294 nM	< 0.001 nM	Cc1c(-c2ccc(N3CCc4cccc(C(=O)Nc5nc6ccccc6s5)c4C3)nc2C(=O)O)cnn1CC12CC3(C)CC(C)(C1)CC(OCCN(CCS(=O)(=O)O)C(=O)[C@@H](N)CS(=O)(=O)O)(C3)C2 [Example 1.37, 6-[8-(1,3-benzothiazol-2-ylcarbamoyl)-3,4-dihydroisoquinolin-2 (1H)-yl]-3-{1-[(3,5-dimethyl-7-{2-[(3-sulfo-L-alanyl)(2-sulfoethyl)amino]ethoxy}tricyclo[3.3.1.1^3,7]dec-1-yl)methyl]-5-methyl-1H-pyrazol-4-yl}pyridine-2-carboxylic acid]
6480 nM	6.28 nM	< 0.001 nM	Cc1c(-c2ccc(N3CCc4cccc(C(=O)Nc5nc6cccnc6s5)c4C3)nc2C(=O)O)cnn1CC12CC3(C)CC(C)(C1)CC(OCCNCCCP(=O)(O)O)(C3)C2 [Example 1.40, 3-{1-[(3,5-dimethyl-7-{2-[(3-phosphonopropyl)amino]ethoxy}tricyclo[3.3.1.1^3,7]dec-1-yl)methyl]-5-methyl-1H-pyrazol-4-yl}-6-[8-([1,3]thiazolo[5,4-b]pyridin-2-ylcarbamoyl)-3,4-dihydroisoquinolin-2 (1H)-yl]pyridine-2-carboxylic acid]
482 nM	0.133 nM	< 0.001 nM	Cc1c(-c2ccc(N3CCc4cccc(C(=O)Nc5nc6ccccc6s5)c4C3)nc2C(=O)O)cnn1CC12CC3(C)CC(C)(C1)CC(OCCN(CCCC(=O)O)C1CCNCC1)(C3)C2 [Example 1.42, 6-[8-(1,3-benzothiazol-2-ylcarbamoyl)-3,4-dihydroisoquinolin-2 (1H)-yl]-3-{1-[(3-{2-[(3-carboxypropyl)(piperidin-4-yl)amino]ethoxy}-5,7-dimethyltricyclo[3.3.1.1^3,7]dec-1-yl)methyl]-5-methyl-1H-pyrazol-4-yl}pyridine-2-carboxylic acid]
185 nM	0.86 nM	< 0.001 nM	Cc1c(-c2ccc(-c3ccc4cccc(C(=O)Nc5nc6ccccc6s5)c4c3)nc2C(=O)O)cnn1CC12CC3(C)CC(C)(C1)CC(OCCNCCS(=O)(=O)O)(C3)C2 [Example 1.43, 6-[8-(1,3-benzothiazol-2-ylcarbamoyl)naphthalen-2-yl]-3-{1-[(3,5-dimethyl-7-{2-[(2-sulfoethyl)amino]ethoxy}tricyclo[3.3.1.1^3,7]dec-1-yl)methyl]-5-methyl-1H-pyrazol-4-yl}pyridine-2-carboxylic acid]
692 nM	0.497 nM	< 0.001 nM	Cc1c(-c2ccc(N3CCc4cccc(C(=O)Nc5nc6ccccc6s5)c4C3)nc2C(=O)O)cnn1CC12CC3(C)CC(C)(C1)CC(OCCN(CCNCCS(=O)(=O)O)CCS(=O)(=O)O)(C3)C2 [Example 1.48, 6-[8-(1,3-benzothiazol-2-ylcarbamoyl)-3,4-dihydroisoquinolin-2 (1H)-yl]-3-{1-[(3,5-dimethyl-7-{2-[(2-sulfoethyl){2-[(2-sulfoethyl)amino]ethyl}amino]ethoxy}tricyclo[3.3.1.1^3,7]dec-1-yl)methyl]-5-methyl-1H-pyrazol-4-yl}pyridine-2-carboxylic acid]
2770 nM	0.051 nM	0.0073 nM	Cc1c(-c2ccc(N3CCc4cccc(C(=O)Nc5nc6ncccc6s5)c4C3)nc2C(=O)O)cnn1CC12CC3(C)CC(C)(C1)CC(OCCN(CCCP(=O)(O)O)C1CCNCC1)(C3)C2 [Example 1.50, 3-{1-[(3,5-dimethyl-7-{2-[(3-phosphonopropyl)(piperidin-4-yl)amino]ethoxy)tricyclo[3.3.1.1^3,7]dec-1-yl)methyl]-5-methyl-1H-pyrazol-4-yl}-6-[8-([1,3]thiazolo[4,5-b]pyridin-2-ylcarbamoyl)-3,4-dihydroisoquinolin-2 (1H)-yl]pyridine-2-carboxylic acid]
555 nM	0.17 nM	< 0.001 nM	Cc1c(-c2ccc(-c3ccc4c(c3)N(C(=O)Nc3nc5ccccc5s3)CCO4)nc2C(=O)O)cnn1CC12CC3(C)CC(C)(C1)CC(OCCNCCS(=O)(=O)O)(C3)C2 [Example 1.51, 6-[4-(1,3-benzothiazol-2-ylcarbamoyl)-3,4-dihydro-2H-1,4-benzoxazin-6-yl]-3-{1-[(3,5-dimethyl-7-{2-[(2-sulfoethyl)amino]ethoxy}tricyclo[3.3.1.1^3,7]dec-1-yl)methyl]-5-methyl-1H-pyrazol-4-yl}pyridine-2-carboxylic acid]
973 nM	0.0329 nM	< 0.001 nM	CNCCOC12CC3(C)CC(C)(CC(Cn4ncc(-c5ccc(N6CCc7c(OCCCS(=O)(=O)O)ccc(C(=O)Nc8nc9ccccc9s8)c7C6)nc5C(=O)O)c4C)(C3)C1)C2 [Example 1.52, 6-[8-(1,3-benzothiazol-2-ylcarbamoyl)-5-(3-sulfopropoxy)-3,4-dihydroisoquinolin-2 (1H)-yl]-3-[1-({3,5-dimethyl-7-[2-(methylamino)ethoxy]tricyclo[3.3.1.1^3,7]dec-1-yl}methyl)-5-methyl-1H-pyrazol-4-yl]pyridine-2-carboxylic acid]
462 nM	0.088 nM	< 0.001 nM	Cc1c(-c2ccc(-c3ccc4c(c3)N(C(=O)Nc3nc5ncccc5s3)CCC4)nc2C(=O)O)cnn1CC12CC3(C)CC(C)(C1)CC(OCCNCCS(=O)(=O)O)(C3)C2 [Example 1.53, 3-{1-[(3,5-dimethyl-7-{2-[(2-sulfoethyl)amino]ethoxy}tricyclo[3.3.1.1^3,7]dec-1-yl)methyl]-5-methyl-1H-pyrazol-4-yl}-6-[1-([1,3]thiazolo[4,5-b]pyridin-2-ylcarbamoyl)-1,2,3,4-tetrahydroquinolin-7-yl]pyridine-2-carboxylic acid]
> 10000 nM	0.11 nM	< 0.001 nM	Cc1c(-c2ccc(-c3ccc4cccc(C(=O)Nc5nc6ncccc6s5)c4c3)nc2C(=O)O)cnn1CC12CC3(C)CC(C)(C1)CC(OCCNCCS(=O)(=O)O)(C3)C2 [Example 1.54, 3-{1-[(3,5-dimethyl-7-[2-[(2-sulfoethyl)amino]ethoxy}tricyclo[3.3.1.1^3,7]dec-1-yl)methyl]-5-methyl-1H-pyrazol-4-yl}-6-[8-([1,3]thiazolo[4,5-b]pyridin-2-ylcarbamoyl)naphthalen-2-yl]pyridine-2-carboxylic acid]
73 nM	0.039 nM	0.039 nM	Cc1c(-c2ccc(N3CCc4c(CC5O[C@H](CO)[C@@H](O)[C@H](O)[C@H]5O)ccc(C(=O)Nc5nc6ccccc6s5)c4C3)nc2C(=O)O)cnn1CC12CC3(C)CC(C)(C1)CC(OCCN)(C3)C2 (stereo partly drawn) [Example 1.55, (1ξ)-1-({2-[5-(1-{[3-(2-aminoethoxy)-5,7-dimethyltricyclo[3.3.1.1^3,7]dec-1-yl]methyl}-5-methyl-1H-pyrazol-4-yl)-6-carboxypyridin-2-yl]-8-(1,3-benzothiazol-2-ylcarbamoyl)-1,2,3,4-tetrahydroisoquinolin-5-yl}methyl)-1,5-anhydro-D-glucitol]
196 nM	0.123 nM	< 0.001 nM	Cc1c(-c2ccc(N3CCc4cccc(C(=O)Nc5nc6ccccc6s5)c4C3)nc2C(=O)O)cnn1CC12CC3(C)CC(C)(C1)CC(OCCNCCCC(=O)O)(C3)C2 [Example 1.56, 6-[8-(1,3-benzothiazol-2-ylcarbamoyl)-3,4-dihydroisoquinolin-2 (1H)-yl]-3-{1-[(3-{2-[(3-carboxypropyl)amino]ethoxy}-5,7-dimethyltricyclo[3.3.1.1^3,7]dec-1-yl)methyl]-5-methyl-1H-pyrazol-4-yl}pyridine-2-carboxylic acid]
425 nM	0.049 nM	< 0.001 nM	Cc1c(-c2ccc(N3CCc4cccc(C(=O)Nc5nc6ccccc6s5)c4C3)nc2C(=O)O)cnn1CC12CC3(C)CC(C)(C1)CC(OCCN(CCS(=O)(=O)O)C1CNC1)(C3)C2 [Example 1.60, 3-{1-[(3-{2-[azetidin-3-yl(2-sulfoethyl)amino]ethoxy}-5,7-dimethyltricyclo[3.3.1.1^3,7]dec-1-yl)methyl]-5-methyl-1H-pyrazol-4-yl}-6-[8-(1,3-benzothiazol-2-ylcarbamoyl)-3,4-dihydroisoquinolin-2 (1H)-yl]pyridine-2-carboxylic acid]

Reference: US20240058450A1, “BCL-XL Inhibitory Compounds Having Low Cell Permeability and Antibody Drug Conjugates Including the Same” (AbbVie Inc., priority 2014, published 2024)
